Reference: patent publication US6706663B2, “Herbicidal 3-heterocyclic substituted benzisothiazole and benzisoxazole compounds” (Wyeth, priority 2000, dated 2004)

Tests used:
[1] = system: TRZAWR (Wheat, Winter, cv Riband); assay: Postemergence herbicidal evaluation; assay type: in vivo, Triticum aestivum
Outline: (§1)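 Seedlings grown about two weeks in flats, sprayed, then kept under standard greenhouse care. Rated visually 4–5 weeks after treatment on a 0–9 scale (stand, vigour, malformation, size, chlorosis, overall appearance) relative to untreated control; repeat tests averaged.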

[2] = system: CYPSE (Cyperus serotinus); assay: Flooded paddy, preemergence weed control; assay type: in vivo, Rottb.; settings: rated 3-4 weeks after treatment, 0-9 rating scale
Outline: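 Herbicidal effect was scored visually on a 0–9 scale against an untreated control 3–4 weeks after treatment. Compounds were applied preemergence as 50/50 v/v aqueous/acetone mixtures into flood water (1.5–3 cm deep over silt loam), at roughly 0.0080 to 0.1250 kg/ha active ingredient.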

[3] = system: ECHCG (Echinochloa crus-galli); assay: Preemergence herbicidal evaluation; assay type: in vivo, (L.) Beau; settings: preemergence, rated 4-5 weeks after treatment
Outline: (§2)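 Visual 0–9 rating versus control (stand, vigor, malformation, size, chlorosis, overall appearance), scored four to five weeks post-treatment. Preemergence spray of aqueous acetone solution onto freshly seeded soil cups; plants grown under conventional greenhouse care.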

[4] = system: SETVI (Setaria viridis); assay: Preemergence herbicidal evaluation; assay type: in vivo, (L.) Beau; settings: preemergence, rated 4-5 weeks after treatment
Outline: as §2

[5] = system: IPOHE (Ipomoea hederacea); assay: Postemergence herbicidal evaluation; assay type: in vivo, (L.) Jacq.
Outline: as §1

[6] = system: MOOVA (Monochoria vaginalis); assay: Flooded paddy, preemergence weed control; assay type: in vivo, Presl.; settings: rated 3-4 weeks after treatment, 0-9 rating scale
Outline: (§3)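 In this preemergence paddy assay, weed seeds or organs are sown at up to 0.5 cm in silt loam and covered by 1.5–3 cm of water for the full test period. After treatment the pots are kept in a greenhouse, and herbicidal effect is rated 0-9 visually against a control.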

[7] = system: GLXMAW (Soybean, Williams); assay: Postemergence herbicidal evaluation; assay type: in vivo, Glycine max, (L.) Merr. cv Williams
Outline: as §1

[8] = system: CASOB (Cassia obtusifolia); assay: Preemergence herbicidal evaluation; assay type: in vivo, L.; settings: preemergence, rated 4-5 weeks after treatment
Outline: as §2

[9] = system: AMBEL (Ambrosia artemisifolia); assay: Preemergence herbicidal evaluation; assay type: in vivo, L.; settings: preemergence, rated 4-5 weeks after treatment
Outline: as §2

[10] = system: CHEAL (Chenopodium album); assay: Preemergence herbicidal evaluation; assay type: in vivo, L.; settings: preemergence, rated 4-5 weeks after treatment
Outline: as §2

[11] = system: ECHCG (Echinochloa crus-galli); assay: Postemergence herbicidal evaluation; assay type: in vivo, (L.) Beau
Outline: as §1

[12] = system: SETVI (Setaria viridis); assay: Postemergence herbicidal evaluation; assay type: in vivo, (L.) Beau
Outline: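 Seedlings about two weeks old were sprayed with compound in 50/50 acetone/water plus 0.5% TWEEN 20, at the equivalent of about 0.0040 to 1.000 kg/ha. Plants were kept in a greenhouse and visually rated 0-9 against a control four to five weeks after treatment. Repeat tests were averaged.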

[13] = system: ORYSAT (Rice, Tebonnet); assay: Preemergence herbicidal evaluation; assay type: in vivo, Oryza sativa, (L.) Tebonnet; settings: preemergence, rated 4-5 weeks after treatment
[14] = system: GALAP (Galium aparine); assay: Preemergence herbicidal evaluation; assay type: in vivo; settings: preemergence, rated 4-5 weeks after treatment
Outline: as §2

[15] = system: ZEAMX (Corn, Field); assay: Postemergence herbicidal evaluation; assay type: in vivo, Zea mays, L.
Outline: as §1

[16] = system: TRZAWR (Wheat, Winter, cv Riband); assay: Preemergence herbicidal evaluation; assay type: in vivo, Triticum aestivum; settings: preemergence, rated 4-5 weeks after treatment
Outline: as §2

[17] = system: ECHORC (Echinochloa oryzoides); assay: Flooded paddy, preemergence weed control; assay type: in vivo, Echinochloa oryzoides (Ard.) Fritsch.; settings: rated 3-4 weeks after treatment, 0-9 rating scale
Outline: as §3

[18] = system: ORYSAT (Rice, Tebonnet); assay: Postemergence herbicidal evaluation; assay type: in vivo, Oryza sativa, (L.) Tebonnet
Outline: as §1

[19] = system: ABUTH (Abutilon theophrasti); assay: Preemergence herbicidal evaluation; assay type: in vivo, Medic.; settings: preemergence, rated 4-5 weeks after treatment

SMILES: Cc1cscc1-c1nsc2ccc(-n3c(=O)cc(C(F)(F)F)n(C)c3=O)cc12 [Compound 26, 1-methyl-3-[3-(4-methyl-3-thienyl)-1,2-benzisothiazol-5-yl]-6-(trifluoromethyl)uracil]
- Postemergence herbicidal rating, TRZAWR ([1]; rate 0.0320 kg/ha): 3.5
- Postemergence herbicidal rating, TRZAWR ([1]; rate 0.0620 kg/ha): 4.5
- herbicidal rating, CYPSE ([2]; rate 0.0320 kg/ha): 0.0
- herbicidal rating, CYPSE ([2]; rate 0.1250 kg/ha): 3.0
- ECHCG preemergence herbicidal rating ([3]; Rate 0.0620 kg/ha): 6.5
- ECHCG preemergence herbicidal rating ([3]; Rate 0.1250 kg/ha): 9.0
- ECHCG preemergence herbicidal rating ([3]; Rate 0.2500 kg/ha): 9.0
- SETVI preemergence herbicidal rating ([4]; Rate 0.0620 kg/ha): 9.0
- SETVI preemergence herbicidal rating ([4]; Rate 0.1250 kg/ha): 9.0
- SETVI preemergence herbicidal rating ([4]; Rate 0.2500 kg/ha): 9.0
- Postemergence herbicidal rating, IPOHE ([5]; rate 0.0320 kg/ha): 9.0
- Postemergence herbicidal rating, IPOHE ([5]; rate 0.0620 kg/ha): 9.0
- herbicidal rating, MOOVA ([6]; rate 0.0080 kg/ha): 9.0
- herbicidal rating, MOOVA ([6]; rate 0.0320 kg/ha): 9.0
- herbicidal rating, MOOVA ([6]; rate 0.1250 kg/ha): 9.0
- Postemergence herbicidal rating, GLXMAW ([7]; rate 0.0320 kg/ha): 6.0
- Postemergence herbicidal rating, GLXMAW ([7]; rate 0.0620 kg/ha): 6.5
- CASOB preemergence herbicidal rating ([8]; Rate 0.0620 kg/ha): 1.0
- CASOB preemergence herbicidal rating ([8]; Rate 0.1250 kg/ha): 3.5
- CASOB preemergence herbicidal rating ([8]; Rate 0.2500 kg/ha): 6.0
- AMBEL preemergence herbicidal rating ([9]; Rate 0.0620 kg/ha): 3.0
- AMBEL preemergence herbicidal rating ([9]; Rate 0.1250 kg/ha): 6.0
- AMBEL preemergence herbicidal rating ([9]; Rate 0.2500 kg/ha): 8.5
- CHEAL preemergence herbicidal rating ([10]; Rate 0.0620 kg/ha): 9.0
- CHEAL preemergence herbicidal rating ([10]; Rate 0.1250 kg/ha): 9.0
- CHEAL preemergence herbicidal rating ([10]; Rate 0.2500 kg/ha): 9.0
- Postemergence herbicidal rating, ECHCG ([11]; rate 0.0320 kg/ha): 3.0
- Postemergence herbicidal rating, ECHCG ([11]; rate 0.0620 kg/ha): 3.0
- Postemergence herbicidal rating, SETVI ([12]; rate 0.0320 kg/ha): 7.0
- Postemergence herbicidal rating, SETVI ([12]; rate 0.0620 kg/ha): 9.0
- ORYSAT preemergence herbicidal rating ([13]; Rate 0.0620 kg/ha): 2.0
- ORYSAT preemergence herbicidal rating ([13]; Rate 0.1250 kg/ha): 3.0
- ORYSAT preemergence herbicidal rating ([13]; Rate 0.2500 kg/ha): 5.5
- GALAP preemergence herbicidal rating ([14]; Rate 0.0620 kg/ha): 7.0
- GALAP preemergence herbicidal rating ([14]; Rate 0.1250 kg/ha): 7.0
- GALAP preemergence herbicidal rating ([14]; Rate 0.2500 kg/ha): 9.0
- Postemergence herbicidal rating, ZEAMX ([15]; rate 0.0320 kg/ha): 5.0
- Postemergence herbicidal rating, ZEAMX ([15]; rate 0.0620 kg/ha): 5.5
- TRZAWR preemergence herbicidal rating ([16]; Rate 0.0620 kg/ha): 2.0
- TRZAWR preemergence herbicidal rating ([16]; Rate 0.1250 kg/ha): 3.0
- TRZAWR preemergence herbicidal rating ([16]; Rate 0.2500 kg/ha): 7.0
- herbicidal rating, ECHORC ([17]; rate 0.0080 kg/ha): 8.0
- herbicidal rating, ECHORC ([17]; rate 0.0320 kg/ha): 9.0
- herbicidal rating, ECHORC ([17]; rate 0.1250 kg/ha): 9.0
- Postemergence herbicidal rating, ORYSAT ([18]; rate 0.0320 kg/ha): 3.5
- Postemergence herbicidal rating, ORYSAT ([18]; rate 0.0620 kg/ha): 4.5
- ABUTH preemergence herbicidal rating ([19]; Rate 0.0620 kg/ha): 4.0
- ABUTH preemergence herbicidal rating ([19]; Rate 0.1250 kg/ha): 9.0
- ABUTH preemergence herbicidal rating ([19]; Rate 0.2500 kg/ha): 9.0

SMILES: Cc1cc(C)c(-c2nsc3ccc(-n4c(=O)cc(C(F)(F)F)n(C)c4=O)cc23)s1 [Compound 27, 3-[3-(3,5-dimethyl-2-thienyl)-1,2-benzisothiazol-5-yl]-1-methyl-6-(trifluoromethyl)uracil]
- Postemergence herbicidal rating, TRZAWR ([1]; rate 0.0320 kg/ha): 5.0
- Postemergence herbicidal rating, TRZAWR ([1]; rate 0.0620 kg/ha): 5.5
- herbicidal rating, CYPSE ([2]; rate 0.0080 kg/ha): 0.0
- herbicidal rating, CYPSE ([2]; rate 0.0320 kg/ha): 4.5
- herbicidal rating, CYPSE ([2]; rate 0.1250 kg/ha): 6.0
- ECHCG preemergence herbicidal rating ([3]; Rate 0.0620 kg/ha): 6.0
- ECHCG preemergence herbicidal rating ([3]; Rate 0.1250 kg/ha): 7.0
- ECHCG preemergence herbicidal rating ([3]; Rate 0.2500 kg/ha): 7.0
- SETVI preemergence herbicidal rating ([4]; Rate 0.0620 kg/ha): 9.0
- SETVI preemergence herbicidal rating ([4]; Rate 0.1250 kg/ha): 9.0
- SETVI preemergence herbicidal rating ([4]; Rate 0.2500 kg/ha): 9.0
- Postemergence herbicidal rating, IPOHE ([5]; rate 0.0320 kg/ha): 9.0
- Postemergence herbicidal rating, IPOHE ([5]; rate 0.0620 kg/ha): 9.0
- herbicidal rating, MOOVA ([6]; rate 0.0080 kg/ha): 6.0
- herbicidal rating, MOOVA ([6]; rate 0.0320 kg/ha): 9.0
- herbicidal rating, MOOVA ([6]; rate 0.1250 kg/ha): 9.0
- Postemergence herbicidal rating, GLXMAW ([7]; rate 0.0320 kg/ha): 6.5
- Postemergence herbicidal rating, GLXMAW ([7]; rate 0.0620 kg/ha): 6.0
- CASOB preemergence herbicidal rating ([8]; Rate 0.0620 kg/ha): 1.0
- CASOB preemergence herbicidal rating ([8]; Rate 0.1250 kg/ha): 5.0
- CASOB preemergence herbicidal rating ([8]; Rate 0.2500 kg/ha): 4.0
- AMBEL preemergence herbicidal rating ([9]; Rate 0.0620 kg/ha): 5.0
- AMBEL preemergence herbicidal rating ([9]; Rate 0.1250 kg/ha): 5.0
- AMBEL preemergence herbicidal rating ([9]; Rate 0.2500 kg/ha): 9.0
- CHEAL preemergence herbicidal rating ([10]; Rate 0.0620 kg/ha): 9.0
- CHEAL preemergence herbicidal rating ([10]; Rate 0.1250 kg/ha): 9.0
- CHEAL preemergence herbicidal rating ([10]; Rate 0.2500 kg/ha): 9.0
- Postemergence herbicidal rating, ECHCG ([11]; rate 0.0320 kg/ha): 4.0
- Postemergence herbicidal rating, ECHCG ([11]; rate 0.0620 kg/ha): 5.0
- Postemergence herbicidal rating, SETVI ([12]; rate 0.0320 kg/ha): 7.0
- Postemergence herbicidal rating, SETVI ([12]; rate 0.0620 kg/ha): 9.0
- ORYSAT preemergence herbicidal rating ([13]; Rate 0.0620 kg/ha): 1.0
- ORYSAT preemergence herbicidal rating ([13]; Rate 0.1250 kg/ha): 2.0
- ORYSAT preemergence herbicidal rating ([13]; Rate 0.2500 kg/ha): 1.0
- GALAP preemergence herbicidal rating ([14]; Rate 0.0620 kg/ha): 9.0
- GALAP preemergence herbicidal rating ([14]; Rate 0.1250 kg/ha): 7.0
- GALAP preemergence herbicidal rating ([14]; Rate 0.2500 kg/ha): 8.0
- Postemergence herbicidal rating, ZEAMX ([15]; rate 0.0320 kg/ha): 5.0
- Postemergence herbicidal rating, ZEAMX ([15]; rate 0.0620 kg/ha): 5.0
- TRZAWR preemergence herbicidal rating ([16]; Rate 0.0620 kg/ha): 2.0
- TRZAWR preemergence herbicidal rating ([16]; Rate 0.1250 kg/ha): 2.0
- TRZAWR preemergence herbicidal rating ([16]; Rate 0.2500 kg/ha): 2.0
- herbicidal rating, ECHORC ([17]; rate 0.0080 kg/ha): 6.5
- herbicidal rating, ECHORC ([17]; rate 0.0320 kg/ha): 9.0
- herbicidal rating, ECHORC ([17]; rate 0.1250 kg/ha): 9.0
- Postemergence herbicidal rating, ORYSAT ([18]; rate 0.0320 kg/ha): 4.5
- Postemergence herbicidal rating, ORYSAT ([18]; rate 0.0620 kg/ha): 4.5
- ABUTH preemergence herbicidal rating ([19]; Rate 0.0620 kg/ha): 5.0
- ABUTH preemergence herbicidal rating ([19]; Rate 0.1250 kg/ha): 6.0
- ABUTH preemergence herbicidal rating ([19]; Rate 0.2500 kg/ha): 9.0
